Nine compounds from US20260325533A1, “CDK INHIBITOR COMPOUNDS” (ALEKSIA THERAPEUTICS, INC., priority 2023, published 2026) can be followed below.

Where two headings read alike, the source gives them in different places. Where only a bound is given, the exact number is not on record here.

Common to all, as to format: biochemical
The target in one assay is CDK1/CCNB1 (Homo sapiens, UniProt P06493). The experiment in a line: CDK1 homogeneous time-resolved fluorescence (HTRF) kinase assay. To be noted: >250 nM; CDK1/CCNB; read-out: CDK1/CCNB IC50 >250 nM. The essentials: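 0.5 nM CDK1/CCNB1 was preincubated 20 min at 23 °C with compound in HEPES pH-unspecified buffer (MgCl2, EGTA, DTT, Tween 20), then reacted 60 min with 1 mM ATP and 50 nM ULight-4E-BP1 (Thr37/46) peptide. EDTA-stopped reactions were detected with 2 nM Eu-anti-phospho antibody; IC50 from 11-point half-log titrations.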
Sequence of CDK1/CCNB1 (P06493 whole entry): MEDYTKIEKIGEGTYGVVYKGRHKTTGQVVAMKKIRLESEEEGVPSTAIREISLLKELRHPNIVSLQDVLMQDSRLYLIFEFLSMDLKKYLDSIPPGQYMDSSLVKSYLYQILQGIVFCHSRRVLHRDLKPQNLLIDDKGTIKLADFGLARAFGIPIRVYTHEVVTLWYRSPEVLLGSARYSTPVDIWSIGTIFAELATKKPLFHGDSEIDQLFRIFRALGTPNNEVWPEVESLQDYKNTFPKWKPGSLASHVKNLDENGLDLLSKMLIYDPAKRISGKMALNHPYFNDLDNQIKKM
Sequence of CDK1/CCNB1 (P14635 whole entry partner): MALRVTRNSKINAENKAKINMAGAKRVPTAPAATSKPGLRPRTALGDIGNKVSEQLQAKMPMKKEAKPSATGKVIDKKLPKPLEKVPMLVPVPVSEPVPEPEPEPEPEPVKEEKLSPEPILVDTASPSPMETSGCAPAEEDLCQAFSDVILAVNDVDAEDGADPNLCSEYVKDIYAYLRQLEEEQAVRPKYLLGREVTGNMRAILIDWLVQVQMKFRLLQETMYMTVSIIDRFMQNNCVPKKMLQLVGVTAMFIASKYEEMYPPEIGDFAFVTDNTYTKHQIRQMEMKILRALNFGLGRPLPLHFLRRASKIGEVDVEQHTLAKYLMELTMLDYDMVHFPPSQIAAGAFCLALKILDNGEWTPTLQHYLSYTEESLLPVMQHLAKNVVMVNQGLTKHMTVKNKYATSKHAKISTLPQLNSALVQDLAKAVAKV
On the technique in general: In TR-FRET formats the signal depends on donor and acceptor labels being close together.

In a further assay the target is CDK6/CCND1 (Homo sapiens, UniProt Q00534). The assay is described as follows: CDK6 homogeneous time-resolved fluorescence (HTRF) kinase assay. As to conditions: >250 nM; CDK6/CCND; 1 mM ATP; read-out: CDK6/CCND IC50, >250 nM. The essentials:
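Recombinant CDK6/CCND1 (1 nM final) was preincubated with compound for 20 min at 23 °C in HEPES buffer with MgCl2, EGTA, DTT and Tween 20. Kinase reaction then ran 60 min at 23 °C with 1 mM ATP and 50 nM ULight-4E-BP1 (Thr37/46) peptide, and was stopped with EDTA.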

Another assay addresses CDK4/CCND3 (Homo sapiens, UniProt P11802). The assay is described as follows: CDK4 homogeneous time-resolved fluorescence (HTRF) kinase assay. To be noted: >250 nM; CDK4/CCND; read-out: CDK4/CCND IC50, >250 nM. A digest of the protocol:
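IC50 values were derived from 11-point half-log dilutions, usually starting at 10 μM. Compound was first held for 20 min at 23 °C with 1.5 nM CDK4/CCND3. 1 mM ATP and 50 nM ULight-eIF4E-BP1 (Thr37/46) substrate were then added for 60 min, and the TR-FRET 665 nm signal was measured after EDTA stop and Eu-anti-phospho-4E-BP1 detection.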

In the next assay the target is CDK2/CCNE1 (Homo sapiens, UniProt P24941). The assay is described as follows: CDK2 homogeneous time-resolved fluorescence (HTRF) kinase assay. To be noted: CDK2/CCNE. The essentials: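 TR-FRET read-out (665 nm, or 665/615 ratio) of Eu-antibody detection of phospho-4E-BP1 (Thr37/46) ULight peptide. Enzyme 3 nM, ATP 1 mM, peptide 50 nM, 1% DMSO; 60 min reaction at 23 °C after 20 min compound preincubation. IC50 from 11-point half-log titrations, top typically 10 μM.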

Setting [1] is: 25-250 nM, read-out: CDK2/CCNE IC50, 25-250 nM.

Sequence of CDK6/CCND1 (Q00534 whole entry): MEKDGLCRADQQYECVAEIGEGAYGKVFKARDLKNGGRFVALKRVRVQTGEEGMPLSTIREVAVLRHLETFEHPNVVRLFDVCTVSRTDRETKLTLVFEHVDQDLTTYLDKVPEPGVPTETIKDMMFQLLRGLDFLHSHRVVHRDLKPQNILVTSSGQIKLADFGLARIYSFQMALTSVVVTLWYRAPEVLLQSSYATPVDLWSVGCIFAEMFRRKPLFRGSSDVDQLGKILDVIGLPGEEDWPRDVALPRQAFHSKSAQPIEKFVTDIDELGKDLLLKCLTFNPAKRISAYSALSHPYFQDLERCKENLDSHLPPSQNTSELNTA
Sequence of CDK6/CCND1 (P24385 whole entry partner): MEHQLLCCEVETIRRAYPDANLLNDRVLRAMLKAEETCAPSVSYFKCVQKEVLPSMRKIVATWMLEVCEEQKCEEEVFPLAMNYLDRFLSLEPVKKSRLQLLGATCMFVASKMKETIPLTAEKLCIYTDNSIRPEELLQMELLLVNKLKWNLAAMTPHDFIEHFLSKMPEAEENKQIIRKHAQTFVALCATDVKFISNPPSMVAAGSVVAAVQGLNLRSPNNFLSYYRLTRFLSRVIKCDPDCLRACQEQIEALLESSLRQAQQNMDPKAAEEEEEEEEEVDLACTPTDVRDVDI
Sequence of CDK4/CCND3 (P11802 whole entry): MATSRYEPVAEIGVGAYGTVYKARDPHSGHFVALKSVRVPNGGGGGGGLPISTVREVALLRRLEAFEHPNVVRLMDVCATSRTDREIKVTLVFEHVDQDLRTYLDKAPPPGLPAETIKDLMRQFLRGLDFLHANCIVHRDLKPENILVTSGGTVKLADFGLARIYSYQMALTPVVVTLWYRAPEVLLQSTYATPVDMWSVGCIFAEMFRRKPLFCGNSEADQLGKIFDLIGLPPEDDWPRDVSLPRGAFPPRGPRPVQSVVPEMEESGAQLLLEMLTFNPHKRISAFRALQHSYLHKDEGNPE
Sequence of CDK4/CCND3 (P30281 whole entry partner): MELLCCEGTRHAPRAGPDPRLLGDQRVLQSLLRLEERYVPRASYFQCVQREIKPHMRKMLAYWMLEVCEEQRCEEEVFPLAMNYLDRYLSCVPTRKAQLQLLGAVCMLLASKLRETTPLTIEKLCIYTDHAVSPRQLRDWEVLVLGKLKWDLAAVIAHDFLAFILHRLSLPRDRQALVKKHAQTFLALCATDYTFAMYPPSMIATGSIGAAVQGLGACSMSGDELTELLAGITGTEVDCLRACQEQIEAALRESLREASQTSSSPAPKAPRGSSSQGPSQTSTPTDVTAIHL

With `Cc1c(-c2nccc3cnc(Nc4ccc(S(=O)(=O)Nc5ncc(F)cn5)cc4)cc23)ccc2c1cnn2CC(C)(C)O` [Ex 880, N-(5-fluoropyrimidin-2-yl)-4-((5-(1-(2-hydroxy-2-methylpropyl)-4-methyl-1H-indazol-5-yl)-2,6-naphthyridin-3-yl)amino)benzenesulfonamide], the IC50 at CDK1/CCNB1 was > 250 nM; at CDK6/CCND1, > 250 nM; at CDK4/CCND3 it was > 250 nM; on CDK2/CCNE1 (<25 nM, read-out: CDK2/CCNE IC50, <25 nM) it was < 25 nM.

With `Cc1c(-c2nccc3cnc(Nc4ccc(S(=O)(=O)Nc5nccc(F)n5)cc4)cc23)ccc2c1cnn2CC(C)(C)O` [Ex 881, N-(4-fluoropyrimidin-2-yl)-4-((5-(1-(2-hydroxy-2-methylpropyl)-4-methyl-1H-indazol-5-yl)-2,6-naphthyridin-3-yl)amino)benzenesulfonamide], the IC50 at CDK1/CCNB1 is > 250 nM; on CDK6/CCND1, > 250 nM; on CDK4/CCND3, > 250 nM; on CDK2/CCNE1 (setting [1]) it was 25 to 250 nM.

With `COc1cncc(C#Cc2nccc3cnc(Nc4ccc(S(C)(=O)=O)cc4)cc23)c1` [Ex 882, 5-((5-methoxypyridin-3-yl)ethynyl)-N-(4-(methylsulfonyl)phenyl)-2,6-naphthyridin-3-amine], the IC50 on CDK1/CCNB1 is > 250 nM; on CDK6/CCND1 it was > 250 nM; on CDK4/CCND3 it was > 250 nM; at CDK2/CCNE1 (setting [1]), 25 to 250 nM.

In the case of `Cc1nc[nH]c1C#Cc1nccc2cnc(Nc3ccc(S(C)(=O)=O)cc3)cc12` [Ex 883, 5-((4-methyl-1H-imidazol-5-yl)ethynyl)-N-(4-(methylsulfonyl)phenyl)-2,6-naphthyridin-3-amine], the IC50 on CDK1/CCNB1 was > 250 nM; on CDK6/CCND1, > 250 nM; on CDK4/CCND3, > 250 nM; at CDK2/CCNE1 (setting [1]) it was 25 to 250 nM.

For `O=c1ccc(C#Cc2nccc3cnc(Nc4cnc(O)c(N5CCNCC5)c4)cc23)n[nH]1` [Ex 886, 6-((7-((6-hydroxy-5-(piperazin-1-yl)pyridin-3-yl)amino)-2,6-naphthyridin-1-yl)ethynyl)pyridazin-3(2H)-one], the IC50 at CDK1/CCNB1 was > 250 nM; at CDK6/CCND1 it was > 250 nM; at CDK4/CCND3, > 250 nM; on CDK2/CCNE1 (setting [1]), 25 to 250 nM.

For `Cc1c(-c2nccc3cnc(Nc4cnc(O)c(N5CCNCC5)c4)cc23)ccc2c1cnn2CC(C)(C)O` [Ex 888, 5-((5-(1-(2-hydroxy-2-methylpropyl)-4-methyl-1H-indazol-5-yl)-2,6-naphthyridin-3-yl)amino)-3-(piperazin-1-yl)pyridin-2-ol], the IC50 was > 250 nM on CDK1/CCNB1, > 250 nM on CDK6/CCND1, > 250 nM on CDK4/CCND3 and 25 to 250 nM on CDK2/CCNE1 (setting [1]).

`CC#Cc1nccc2cnc(Nc3ccc(S(=O)(=O)Nc4ncc(C)cn4)cc3)cc12` [Ex 889, N-(5-methylpyrimidin-2-yl)-4-((5-(prop-1-yn-1-yl)-2,6-naphthyridin-3-yl)amino)benzenesulfonamide]: the IC50 was > 250 nM on CDK1/CCNB1, > 250 nM at CDK6/CCND1, > 250 nM on CDK4/CCND3 and 25 to 250 nM on CDK2/CCNE1 (setting [1]).

Take `CC#Cc1nccc2cnc(Nc3ccc(S(=O)(=O)Nc4nc(OC)cc(OC)n4)cc3)cc12` [Ex 890, N-(4,6-dimethoxypyrimidin-2-yl)-4-((5-(prop-1-yn-1-yl)-2,6-naphthyridin-3-yl)amino)benzenesulfonamide]: the IC50 is > 250 nM at CDK1/CCNB1, > 250 nM on CDK6/CCND1, > 250 nM on CDK4/CCND3 and 25 to 250 nM on CDK2/CCNE1 (setting [1]).

In the case of `CC#Cc1nccc2cnc(Nc3ccc(S(=O)(=O)Nc4nccc(C(F)(F)F)n4)cc3)cc12` [Ex 891, 4-((5-(prop-1-yn-1-yl)-2,6-naphthyridin-3-yl)amino)-N-(4-(trifluoromethyl)pyrimidin-2-yl)benzenesulfonamide], the IC50 on CDK1/CCNB1 was > 250 nM; on CDK6/CCND1, > 250 nM; at CDK4/CCND3, > 250 nM; at CDK2/CCNE1 (setting [1]), 25 to 250 nM.
